# Toxic doses and inconclusive results are not listed.
# System: CD2F1 mice, L1210 leukemia ip, survival T/C
# Test: NCI In Vivo Anticancer Drug Screen. Data for tumor model L1210 Leukemia (intraperitoneal) in CD2F1 (CDF1) mice
# Conditions: higher = longer survival
# How it was run: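 Antitumor effect is scored in animals hosting a serially transplanted tumor. Values compare compound-dosed animals against vehicle-only controls as a simple quotient.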
# [1] = endpoint: mean survival time, dose: 100.0 mg/kg/injection, schedule: Q01DX009 (ip), vehicle: saline
# [2] = endpoint: mean survival time, dose: 100.0 mg/kg/injection, schedule: Q04DX003 (ip), vehicle: saline with Tween-80
# [3] = endpoint: mean survival time, dose: 200.0 mg/kg/injection, schedule: Q01DX009 (ip), vehicle: saline
# [4] = endpoint: mean survival time, dose: 200.0 mg/kg/injection, schedule: Q04DX003 (ip), vehicle: saline with Tween-80
# [5] = endpoint: mean survival time, dose: 400.0 mg/kg/injection, schedule: Q01DX009 (ip), vehicle: saline
# [6] = endpoint: mean survival time, dose: 400.0 mg/kg/injection, schedule: Q04DX003 (ip), vehicle: saline with Tween-80
compound,measurement,setting,value
O=C(O)C1(C(=O)O)CCC1.[NH2-].[NH2-].[Pt+2],T/C,"endpoint: mean survival time, dose: 3.12 mg/kg/injection, schedule: Q01DX009 (ip), vehicle: dextrose",110 % of control
same,T/C,"endpoint: mean survival time, dose: 6.25 mg/kg/injection, schedule: Q01DX009 (ip), vehicle: dextrose",118 % of control
same,T/C,"endpoint: mean survival time, dose: 6.25 mg/kg/injection, schedule: Q01DX009 (ip), vehicle: other",107 % of control
same,T/C,"endpoint: mean survival time, dose: 12.5 mg/kg/injection, schedule: Q01DX009 (ip), vehicle: dextrose",110 % of control
same,T/C,"endpoint: mean survival time, dose: 12.5 mg/kg/injection, schedule: Q01DX009 (ip), vehicle: saline with Tween-80",108 % of control
same,T/C,"endpoint: mean survival time, dose: 12.5 mg/kg/injection, schedule: Q04DX003 (ip), vehicle: water",109 % of control
same,T/C,"endpoint: mean survival time, dose: 25.0 mg/kg/injection, schedule: Q01DX009 (ip), vehicle: saline with Tween-80",117 % of control
same,T/C,"endpoint: mean survival time, dose: 25.0 mg/kg/injection, schedule: Q01DX009 (ip), vehicle: water",152 % of control
same,T/C,"endpoint: mean survival time, dose: 25.0 mg/kg/injection, schedule: Q04DX003 (ip), vehicle: water",112 % of control
same,T/C,"endpoint: mean survival time, dose: 50.0 mg/kg/injection, schedule: Q01DX009 (ip), vehicle: dextrose",113 % of control
same,T/C,"endpoint: mean survival time, dose: 100.0 mg/kg/injection, schedule: Q01DX009 (ip), vehicle: other",90 % of control
same,T/C,"endpoint: mean survival time, dose: 100.0 mg/kg/injection, schedule: Q01DX009 (ip), vehicle: saline with Tween-80",96 % of control
same,T/C,"endpoint: mean survival time, dose: 100.0 mg/kg/injection, schedule: Q04DX003 (ip), vehicle: water",105 % of control
same,T/C,"endpoint: median survival time, dose: 60.0 mg/kg/injection, schedule: Q01DX009 (ip), vehicle: clinical formulation",109 % of control
same,T/C,"endpoint: median survival time, dose: 90.0 mg/kg/injection, schedule: Q01DX009 (ip), vehicle: dextrose",124 % of control
O=C1C2=Cc3ccccc3CN2Cc2ccccc21,T/C,"endpoint: mean survival time, dose: 75.0 mg/kg/injection, schedule: Q01DX001 (ip), vehicle: other",98 % of control
same,T/C,"endpoint: mean survival time, dose: 150.0 mg/kg/injection, schedule: Q01DX001 (ip), vehicle: other",101 % of control
O=C(O)C(=Cc1ccnc2ccccc12)C(=O)O,T/C,[1],100 % of control
same,T/C,[2],111 % of control
same,T/C,[3],94 % of control
same,T/C,[4],100 % of control
same,T/C,[5],111 % of control
same,T/C,[6],98 % of control
OC(Cc1ccc2ccccc2n1)C(Cl)(Cl)Cl (centres undefined),T/C,"endpoint: mean survival time, dose: 100.0 mg/kg/injection, schedule: Q04DX003 (ip), vehicle: alcohol",95 % of control
same,T/C,"endpoint: mean survival time, dose: 200.0 mg/kg/injection, schedule: Q04DX003 (ip), vehicle: alcohol",95 % of control
same,T/C,"endpoint: mean survival time, dose: 400.0 mg/kg/injection, schedule: Q04DX003 (ip), vehicle: alcohol",101 % of control
CNC(=O)N(C)CC(O)C(O)C(O)C(O)CO (centres undefined),T/C,[2],97 % of control
same,T/C,[4],104 % of control
same,T/C,[6],106 % of control
O=[N+]([O-])c1ccc(/C=C/C=C/C2(CCl)OCCO2)cc1,T/C,"endpoint: mean survival time, dose: 100.0 mg/kg/injection, schedule: Q01DX001 (ip), vehicle: Klucel (hydroxypropylcellulose) (HPC)",100 % of control
same,T/C,"endpoint: mean survival time, dose: 200.0 mg/kg/injection, schedule: Q01DX001 (ip), vehicle: Klucel (hydroxypropylcellulose) (HPC)",112 % of control
same,T/C,"endpoint: mean survival time, dose: 400.0 mg/kg/injection, schedule: Q01DX001 (ip), vehicle: Klucel (hydroxypropylcellulose) (HPC)",100 % of control
COc1cccc2c1CCC1=C2CC=C2CC3(CCC21C)OCCO3 (centres undefined),T/C,"endpoint: mean survival time, dose: 100.0 mg/kg/injection, schedule: Q04DX003 (sc), vehicle: steriod suspending solution",91 % of control
same,T/C,"endpoint: mean survival time, dose: 200.0 mg/kg/injection, schedule: Q04DX003 (sc), vehicle: steriod suspending solution",96 % of control
same,T/C,"endpoint: mean survival time, dose: 400.0 mg/kg/injection, schedule: Q04DX003 (sc), vehicle: steriod suspending solution",97 % of control
O=C(O)c1ccccc1C(=O)c1ccccc1,T/C,[1],97 % of control
same,T/C,"endpoint: mean survival time, dose: 100.0 mg/kg/injection, schedule: Q04DX003 (ip), vehicle: saline",90 % of control
same,T/C,[3],101 % of control
same,T/C,"endpoint: mean survival time, dose: 200.0 mg/kg/injection, schedule: Q04DX003 (ip), vehicle: saline",95 % of control
same,T/C,[5],101 % of control
same,T/C,"endpoint: mean survival time, dose: 400.0 mg/kg/injection, schedule: Q04DX003 (ip), vehicle: saline",103 % of control
O=C1C(c2ccccc2)=[N+]([O-])[N+]([O-])=C1c1ccccc1,T/C,"endpoint: mean survival time, dose: 50.0 mg/kg/injection, schedule: Q01DX009 (ip), vehicle: Klucel (hydroxypropylcellulose) (HPC)",97 % of control
same,T/C,"endpoint: mean survival time, dose: 100.0 mg/kg/injection, schedule: Q01DX009 (ip), vehicle: Klucel (hydroxypropylcellulose) (HPC)",97 % of control
same,T/C,"endpoint: mean survival time, dose: 200.0 mg/kg/injection, schedule: Q01DX009 (ip), vehicle: Klucel (hydroxypropylcellulose) (HPC)",101 % of control
